Source: publication PMC8876959, “Comparative Evaluation of Radiochemical and Biological Properties of ^131I- and [^99mTc]Tc(CO)3-Labeled RGD Analogues Planned to Interact with the αvβ3 Integrin Expressed in Glioblastoma” (Pharmaceuticals, 2022)

Experiment: Ex vivo biodistribution in glioblastoma allograft tumor-bearing (model) rats
Parameters: species or system rat
Settings: for Ex vivo biodistribution, Blood / Ex vivo biodistribution, Brain / Ex vivo biodistribution, Heart / Ex vivo biodistribution, Kidneys / Ex vivo biodistribution, Liver / Ex vivo biodistribution, Lungs / Ex vivo biodistribution, Spleen / Ex vivo biodistribution, Stomach: model rats, gamma counter, mean ± SEM, n = 3
Protocol: Adult male Sprague Dawley rats (280–320 g) were maintained under controlled environmental conditions (12 h light-dark cycle; constant temperature 21 ± 2 °C), with free access to water and food. Tumorigenic glioblastoma cells were implanted in the right frontal cortex, following specific coordinates (referred to bregma): anteroposterior = 1.0 mm; lateral = 3.0 mm; depth = 5.0 mm. An aliquot of culture medium (10 µL) containing 1 × 10^6 C6 cells in suspension was injected slowly (1 µL/min) using a Hamilton syringe positioned on a stereotaxic surgery frame. In the control group, only the culture medium, without cells, was injected. An interval of 20 days after cell inoculation was allowed for tumor development.
The ex vivo biodistribution of each radiolabeled peptide (4 MBq; 0.2 mL) was evaluated at 15, 60, and 240 min after IV injection in control and tumor-bearing animals (n = 3 per group, per time point). The molar activities in this study were 0.68 and 16.2 MBq/nmol for the iodine and tricarbonyl-labeled peptides, respectively. Animals were deeply anesthetized and sacrificed at the corresponding biodistribution time point. Brain, spleen, heart, stomach, liver, lungs, kidneys, and blood were collected and weighed. Then, their radioactivities were determined using the above-mentioned automatic gamma counter. The radioactivity of each organ/tissue was evaluated as the percentage of injected dose per gram of organ/tissue (% ID/g), using the same injected dose activity as a standard.

Question: What does the source list for [^99mTc]Tc(CO)3-GRGDHV?
Answer: Ex vivo biodistribution, Blood (15 min after IV injection): 10.28 ± 2.93 %ID/g; Ex vivo biodistribution, Blood (60 min after IV injection): 8.91 ± 0.94 %ID/g; Ex vivo biodistribution, Blood (240 min after IV injection): 10.32 ± 1.51 %ID/g; Ex vivo biodistribution, Brain (15 min after IV injection): 0.71 ± 0.01 %ID/g; Ex vivo biodistribution, Brain (60 min after IV injection): 0.81 ± 0.01 %ID/g; Ex vivo biodistribution, Brain (240 min after IV injection): 1.57 ± 0.11 %ID/g; Ex vivo biodistribution, Heart (15 min after IV injection): 5.40 ± 0.48 %ID/g; Ex vivo biodistribution, Heart (60 min after IV injection): 5.14 ± 0.73 %ID/g; Ex vivo biodistribution, Heart (240 min after IV injection): 4.80 ± 0.11 %ID/g; In vivo radiochemical stability (judged from ex vivo biodistribution (stomach uptake) in rats): better in vivo radiochemical stability; Ex vivo biodistribution, Kidneys (15 min after IV injection): 58.33 ± 1.43 %ID/g; Ex vivo biodistribution, Kidneys (60 min after IV injection): 58.99 ± 1.13 %ID/g; Ex vivo biodistribution, Kidneys (240 min after IV injection): 40.44 ± 2.99 %ID/g; Ex vivo biodistribution, Liver (15 min after IV injection): 7.04 ± 0.68 %ID/g; Ex vivo biodistribution, Liver (60 min after IV injection): 8.29 ± 0.43 %ID/g; Ex vivo biodistribution, Liver (240 min after IV injection): 11.62 ± 1.01 %ID/g; Ex vivo biodistribution, Lungs (15 min after IV injection): 10.03 ± 2.56 %ID/g; Ex vivo biodistribution, Lungs (60 min after IV injection): 7.83 ± 0.20 %ID/g; Ex vivo biodistribution, Lungs (240 min after IV injection): 9.38 ± 1.89 %ID/g; Ex vivo biodistribution, Spleen (15 min after IV injection): 3.74 ± 0.33 %ID/g; Ex vivo biodistribution, Spleen (60 min after IV injection): 2.88 ± 0.32 %ID/g; Ex vivo biodistribution, Spleen (240 min after IV injection): 4.12 ± 0.79 %ID/g; Ex vivo biodistribution, Stomach (15 min after IV injection): 4.44 ± 1.25 %ID/g; Ex vivo biodistribution, Stomach (60 min after IV injection): 7.28 ± 0.88 %ID/g; Ex vivo biodistribution, Stomach (240 min after IV injection): 14.60 ± 2.07 %ID/g
